Columns and labels:
[1] = Stability in water; assay type: physicochemical
Description: (§1) Consequently, the extract is preferably obtained by extracting the compounds from plant material using an alcohol, and more particularly ethanol. It is particularly preferred if the alcohol is water-free.

[2] = Solubility in water; assay type: physicochemical
Description: as §1

C[C@@H]1O[C@@H](O[C@@H]2[C@H]3O[C@@H](c4ccc(O)c(O)c4)CO[C@@H]3O[C@H](CO)[C@H]2OC(=O)/C=C/c2ccc(O)c(O)c2)[C@H](O)[C@H](O)[C@H]1O [crenatoside]
stability in water [1]: unstable in water | solubility in water [2]: water-soluble

C[C@@H]1O[C@@H](O[C@@H]2[C@@H](O)[C@H](OCCc3ccc(O)c(O)c3)O[C@H](CO)[C@H]2OC(=O)/C=C/c2ccc(O)c(O)c2)[C@H](O)[C@H](O)[C@H]1O [acteoside]
stability in water [1]: unstable in water | solubility in water [2]: water-soluble

Reference: US12622859B2, “Organic compounds” (GIVAUDAN SA, priority 2017, dated 2026)
